From ChEMBL document CHEMBL3885881, “DrugMatrix”

Organism: Rattus norvegicus
Assay: DrugMatrix - Regimen: Daily Repeat
Format: toxicity, organism-based, Sprague-Dawley
Set-up: regimen Daily Repeat, gender Male, age 6-8 weeks
Settings: in vivo, po, route oral GAVAGE, […]; for ABSOLUTE BASOPHIL / ABSOLUTE EOSINOPHIL / ABSOLUTE LYMPHOCYTE / ABSOLUTE MONOCYTE / ABSOLUTE SEGMENTED NEUTROPHIL / BASOPHIL / EOSINOPHIL / ERYTHROCYTE COUNT / HEMATOCRIT / HEMOGLOBIN / LEUKOCYTE COUNT / LYMPHOCYTE / MEAN CORPUSCULAR HEMOGLOBIN / MEAN CORPUSCULAR HEMOGLOBIN CONCENTRATION / MEAN CORPUSCULAR VOLUME / MONOCYTE / NEUTROPHIL / NUCLEATED RED BLOOD CELLS / PLATELET COUNT: tissue Blood; for ALANINE AMINOTRANSFERASE / ALBUMIN / ALKALINE PHOSPHATASE / ASPARTATE AMINOTRANSFERASE / BLOOD UREA NITROGEN / CARBON DIOXIDE / CHLORIDE / CHOLESTEROL / CREATINE PHOSPHOKINASE / CREATININE / GLUCOSE / LACTATE DEHYDROGENASE / LIPASE / PHOSPHORUS / POTASSIUM / SODIUM / TOTAL BILIRUBIN / TOTAL PROTEIN / URIC ACID: tissue Plasma
[1] = 0 mg/kg, 72 h, dose level Control, time 3 day
[2] = 0 mg/kg, 120 h, dose level Control, time 5 day
[3] = 12 mg/kg, 72 h, dose level Low, time 3 day

Question: What does the source list for `COc1ncnc(NS(=O)(=O)c2ccc(N)cc2)c1OC` [SULFADOXINE]?
Answer: ABSOLUTE BASOPHIL [1]: 0 CELLS/uL; ABSOLUTE EOSINOPHIL [1]: 41.83 CELLS/uL; ABSOLUTE LYMPHOCYTE [1]: 8545.5 CELLS/uL; ABSOLUTE MONOCYTE [1]: 240 CELLS/uL; ABSOLUTE SEGMENTED NEUTROPHIL [1]: 906 CELLS/uL; BASOPHIL [1]: 0%; EOSINOPHIL [1]: 0.33%; ERYTHROCYTE COUNT [1]: 5.6 x10E6/uL; HEMATOCRIT [1]: 35.4%; HEMOGLOBIN [1]: 13.42 G/DL; LEUKOCYTE COUNT [1]: 9.73 x10E3/uL; LYMPHOCYTE [1]: 87.83%; MEAN CORPUSCULAR HEMOGLOBIN [1]: 23.98 pg; MEAN CORPUSCULAR HEMOGLOBIN CONCENTRATION [1]: 37.92 G/DL; MEAN CORPUSCULAR VOLUME [1]: 63.3 fL; MONOCYTE [1]: 2.5%; NEUTROPHIL [1]: 9.33%; NUCLEATED RED BLOOD CELLS [1]: 0 /100WBC; PLATELET COUNT [1]: 1032 x10E3/uL; ALANINE AMINOTRANSFERASE [1]: 72.83 u/L; ALBUMIN [1]: 4 G/DL; ALKALINE PHOSPHATASE [1]: 322.83 u/L; ASPARTATE AMINOTRANSFERASE [1]: 102.67 u/L; BLOOD UREA NITROGEN [1]: 12 mg/dL; CARBON DIOXIDE [1]: 34.33 mmol/L; CHLORIDE [1]: 97.67 MEQ/L; CHOLESTEROL [1]: 82.5 mg/dL; CREATINE PHOSPHOKINASE [1]: 410.33 u/L; CREATININE [1]: 0.18 mg/dL; GLUCOSE [1]: 164.5 mg/dL; LACTATE DEHYDROGENASE [1]: 119.5 u/L; LIPASE [1]: 11.83 u/L; PHOSPHORUS [1]: 9.52 mg/dL; POTASSIUM [1]: 5.56 MEQ/L; SODIUM [1]: 142.48 MEQ/L; TOTAL BILIRUBIN [1]: 0.18 mg/dL; TOTAL PROTEIN [1]: 5.77 G/DL; URIC ACID [1]: 0.48 mg/dL; ABSOLUTE BASOPHIL [2]: 0 CELLS/uL; ABSOLUTE EOSINOPHIL [2]: 0 CELLS/uL; ABSOLUTE LYMPHOCYTE [2]: 9065 CELLS/uL; ABSOLUTE MONOCYTE [2]: 341.33 CELLS/uL; ABSOLUTE SEGMENTED NEUTROPHIL [2]: 527 CELLS/uL; BASOPHIL [2]: 0%; EOSINOPHIL [2]: 0%; ERYTHROCYTE COUNT [2]: 5.25 x10E6/uL; HEMATOCRIT [2]: 34.08%; HEMOGLOBIN [2]: 13.5 G/DL; LEUKOCYTE COUNT [2]: 9.93 x10E3/uL; LYMPHOCYTE [2]: 91.17%; MEAN CORPUSCULAR HEMOGLOBIN [2]: 25.7 pg; MEAN CORPUSCULAR HEMOGLOBIN CONCENTRATION [2]: 39.62 G/DL; MEAN CORPUSCULAR VOLUME [2]: 64.93 fL; MONOCYTE [2]: 3.33%; NEUTROPHIL [2]: 5.5%; NUCLEATED RED BLOOD CELLS [2]: 0 /100WBC; PLATELET COUNT [2]: 1077.5 x10E3/uL; ALANINE AMINOTRANSFERASE [2]: 57.83 u/L; ALBUMIN [2]: 4.07 G/DL; ALKALINE PHOSPHATASE [2]: 319.17 u/L; ASPARTATE AMINOTRANSFERASE [2]: 83.33 u/L; BLOOD UREA NITROGEN [2]: 13.67 mg/dL; CARBON DIOXIDE [2]: 30.83 mmol/L; CHLORIDE [2]: 98.33 MEQ/L; CHOLESTEROL [2]: 64.83 mg/dL; CREATINE PHOSPHOKINASE [2]: 263.67 u/L; CREATININE [2]: 0.2 mg/dL; GLUCOSE [2]: 182.83 mg/dL; LACTATE DEHYDROGENASE [2]: 124 u/L; LIPASE [2]: 10.5 u/L; PHOSPHORUS [2]: 10 mg/dL; POTASSIUM [2]: 5.78 MEQ/L; SODIUM [2]: 142.48 MEQ/L; TOTAL BILIRUBIN [2]: 0.2 mg/dL; TOTAL PROTEIN [2]: 6 G/DL; URIC ACID [2]: 0.7 mg/dL; ABSOLUTE BASOPHIL [3]: 0 CELLS/uL; ABSOLUTE EOSINOPHIL [3]: 0 CELLS/uL; ABSOLUTE LYMPHOCYTE [3]: 9669.67 CELLS/uL; ABSOLUTE MONOCYTE [3]: 359.33 CELLS/uL; ABSOLUTE SEGMENTED NEUTROPHIL [3]: 937.67 CELLS/uL; BASOPHIL [3]: 0%; EOSINOPHIL [3]: 0%; ERYTHROCYTE COUNT [3]: 5.36 x10E6/uL; HEMATOCRIT [3]: 34.67%; HEMOGLOBIN [3]: 13.5 G/DL; LEUKOCYTE COUNT [3]: 10.97 x10E3/uL; LYMPHOCYTE [3]: 88.33%; MEAN CORPUSCULAR HEMOGLOBIN [3]: 25.23 pg; MEAN CORPUSCULAR HEMOGLOBIN CONCENTRATION [3]: 38.97 G/DL; MEAN CORPUSCULAR VOLUME [3]: 64.87 fL; MONOCYTE [3]: 2.67%; NEUTROPHIL [3]: 9%; NUCLEATED RED BLOOD CELLS [3]: 0 /100WBC; PLATELET COUNT [3]: 1062.67 x10E3/uL; ALANINE AMINOTRANSFERASE [3]: 67.67 u/L; ALBUMIN [3]: 4 G/DL; ALKALINE PHOSPHATASE [3]: 358.33 u/L; ASPARTATE AMINOTRANSFERASE [3]: 91.33 u/L; BLOOD UREA NITROGEN [3]: 12.67 mg/dL; CARBON DIOXIDE [3]: 32.33 mmol/L; CHLORIDE [3]: 98.33 MEQ/L; CHOLESTEROL [3]: 76.33 mg/dL; CREATINE PHOSPHOKINASE [3]: 340.67 u/L; CREATININE [3]: 0.29 mg/dL; GLUCOSE [3]: 154.67 mg/dL; LACTATE DEHYDROGENASE [3]: 166 u/L; LIPASE [3]: 10.67 u/L; PHOSPHORUS [3]: 10.17 mg/dL; POTASSIUM [3]: 5.55 MEQ/L; SODIUM [3]: 143.6 MEQ/L; TOTAL BILIRUBIN [3]: 0.23 mg/dL; TOTAL PROTEIN [3]: 5.77 G/DL; URIC ACID [3]: 0.33 mg/dL
